Broadly, the AUC is the area under the concentration-time curve, a measure of exposure. Read a low AUC as low exposure. Usually Cmax stands for the peak of the concentration-time curve.

Data on six molecules can be found in patent publication US9289430B2, “Compounds and methods for inhibiting phosphate transport” (Ardelyx, Inc., priority 2010, dated 2016).

Data set [1] can be described thus: Stability in simulated gastric and intestinal fluid. The class given is in vitro ADME. The conditions noted are these: 6 hr, 1-20 μM. How it is done:
Test compounds were incubated at 1-20 μM in simulated gastric fluid (SGF; standard USP solution with 3 mg/mL pepsin) or simulated intestinal fluid (SIF; standard USP solution with 3 mg/mL pancreatin) for 3 hr or 6 hr. HPLC-UV or HPLC-MS were used to determine test compound levels using peak area %. Results (Table 5) were reported as the percentage of test compound remaining after incubation in a given condition relative to test compound present at t=0 in the same condition.

Data set [2] in a line: Determination of compound Cmax and AUC after oral gavage. The class given is in vivo, Sprague-Dawley rats. The conditions noted are these: Sprague-Dawley, rat plasma, sampling 0.5-4 h. On the procedure: Sprague-Dawley rats were orally gavaged with test article at a nominal dose of 2.5 or 10 mg/kg and blood was collected at 0.5, 1, 2 and 4 h. Blood samples were processed to plasma using K2EDTA as an anticoagulant. Plasma samples were treated with acetonitrile containing an internal standard, precipitated proteins removed by centrifugation. Supernatants were analyzed by LC-MS/MS and compound concentrations were determined by interpolated from a standard curve prepared in plasma. All compounds were orally dosed at the dosage shown, and pharmacokinetic parameters determined

A short description of data set [3]: Fecal recovery of orally administered compounds. The class given is in vivo, Sprague-Dawley rats. As to conditions: rats, oral gavage, feces 0-48 hr after dosing. On the procedure: Quantitative determination of test compound level in feces after oral gavage was performed using the same set of animals used to determine test compound concentration in plasma (Example 30). The animals were kept in metabolic cages and feces were collected from the time of dosing until 48 hr after dosing. Upon collection, feces was dried by lyophilization and ground to a visually homogenous powder. Duplicate samples of ground feces from each individual animal were weighed out and extracted using organic solvent. Extracted samples were then diluted into mobile phase and test compound levels were quantitatively determined by LC-MS/MS analysis as described in “Example 30” except that the standard curve was prepared in a feces matrix. Extraction conditions were not optimized for individual compounds, and thus may represent a minimal level of recovery.

A further data set deals with T1, rat NaP2b (SLC34A2) (Rattus norvegicus, UniProt Q9JJ09).
T1 construct: host or cells: HEK293
T1 sequence (Q9JJ09 1-695): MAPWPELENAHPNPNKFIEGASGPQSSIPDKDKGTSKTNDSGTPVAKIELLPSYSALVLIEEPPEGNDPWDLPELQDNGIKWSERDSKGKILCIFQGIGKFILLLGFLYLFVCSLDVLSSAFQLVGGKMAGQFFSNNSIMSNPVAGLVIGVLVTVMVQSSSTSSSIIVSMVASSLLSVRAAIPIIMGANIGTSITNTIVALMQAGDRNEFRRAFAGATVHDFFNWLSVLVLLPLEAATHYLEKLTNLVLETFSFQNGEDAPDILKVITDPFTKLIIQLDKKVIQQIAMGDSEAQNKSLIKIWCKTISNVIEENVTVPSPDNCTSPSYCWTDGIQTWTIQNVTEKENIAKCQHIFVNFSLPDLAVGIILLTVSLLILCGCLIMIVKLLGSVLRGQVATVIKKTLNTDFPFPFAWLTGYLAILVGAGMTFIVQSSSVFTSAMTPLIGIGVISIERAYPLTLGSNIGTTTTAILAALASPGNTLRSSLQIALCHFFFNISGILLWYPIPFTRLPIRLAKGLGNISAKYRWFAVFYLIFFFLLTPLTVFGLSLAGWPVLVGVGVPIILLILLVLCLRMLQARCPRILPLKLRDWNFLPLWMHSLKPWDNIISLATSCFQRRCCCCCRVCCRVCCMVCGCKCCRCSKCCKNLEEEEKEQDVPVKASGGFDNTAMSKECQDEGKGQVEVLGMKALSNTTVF
The data set is described as follows: NaP2b-mediated Pi transport: 33P phosphate uptake into transfected HEK293 cells. The class given is cell-based. The conditions noted are these: 100 uM KH2PO4, PiT-silencing agent; for IC50: read-out: pIC50 range for rat Nap2b (converted). How it is done: (§1) Materials. HEK293 cells were obtained from the American Type Culture collection and propagated per their instructions. Expression clones for rat and human NaP2b (SLC34A2) were obtained from Open Biosystems (Catalog numbers MRN1768-9510282, and MHS1010-99823026, respectively). The sequence of the human protein was mutated to insert a threonine after residue 37, and to introduce a N39D mutation.
(§2) Inhibition of Pi Transport. The rate of phosphate (Pi) uptake into HEK293 cells was measured using a modification of the method described by Mohrmann et al. (Mohrmann, I., Mohrmann, M., Biber, J., and Murer, H. (1986) Am. J. Phys. 250(3 Pt 1):G323-30.) Transfected HEK293 cells were treated with a pharmacological agent to minimize endogenous PiT-mediated phosphate transport activity, such that the only remaining sodium-dependent phosphate transport activity is that which was bestowed by introduction of the NaP2b genes.
(§3) Cells were seeded into 96-well plates at 25,000 cells/well and cultured overnight. Lipofectamine 2000 (Invitrogen) was used to introduce the NaP2b cDNA, and the cells were allowed to approach confluence during a second overnight incubation. […] Cells were then overlayed with either choline uptake buffer or sodium uptake buffer (14 mM Tris, 137 mM sodium chloride, 5.4 mM KCl, 2.8 mM CaCl2, 1.2 mM MgSO4, 100 uM KH2PO4, PiT-silencing agent, 1 mg/mL Bovine Serum Albumin, pH 7.4) containing 6-9 uCi/mL ^33P orthophosphoric acid (Perkin Elmer) and test compound. Each compound was tested at twelve concentrations ranging from 0.1 nM to 30 uM. Assays were run in duplicate.
(§4) After incubation for 3-30 minutes at room temperature, assay mixtures were removed, and the cells were washed twice with ice cold stop solution (137 mM sodium chloride, 14 mM Tris, pH 7.4). Cells were lysed by addition of 20 μL 0.1% Tween 80 followed by 100 μL scintillation fluid, and counted using a TopCount (Perkin Elmer).
(§5) pIC50 (the negative log of the IC50) values of the test compounds were calculated using GraphPad Prism.

The target in a further data set is T2, human NaP2b (SLC34A2) (Homo sapiens, UniProt O95436).
T2 construct: host or cells: HEK293
T2 sequence (O95436 1-690): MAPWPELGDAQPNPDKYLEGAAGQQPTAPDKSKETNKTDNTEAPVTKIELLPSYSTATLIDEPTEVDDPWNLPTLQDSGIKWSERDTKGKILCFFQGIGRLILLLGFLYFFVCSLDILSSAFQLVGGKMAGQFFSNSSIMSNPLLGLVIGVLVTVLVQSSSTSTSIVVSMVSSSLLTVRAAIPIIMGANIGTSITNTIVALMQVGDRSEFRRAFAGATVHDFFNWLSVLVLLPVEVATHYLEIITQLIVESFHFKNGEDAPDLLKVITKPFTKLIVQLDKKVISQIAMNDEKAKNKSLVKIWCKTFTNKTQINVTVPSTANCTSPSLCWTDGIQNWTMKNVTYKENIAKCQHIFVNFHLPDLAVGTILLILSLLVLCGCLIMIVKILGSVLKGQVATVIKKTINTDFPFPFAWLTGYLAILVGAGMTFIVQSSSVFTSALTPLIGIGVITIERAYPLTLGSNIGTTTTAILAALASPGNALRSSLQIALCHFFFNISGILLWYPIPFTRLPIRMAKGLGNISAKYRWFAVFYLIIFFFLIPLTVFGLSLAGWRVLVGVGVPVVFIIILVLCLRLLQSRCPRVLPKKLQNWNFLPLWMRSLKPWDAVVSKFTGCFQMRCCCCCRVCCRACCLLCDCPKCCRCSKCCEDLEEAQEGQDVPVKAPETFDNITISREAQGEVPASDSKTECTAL
The data set is described as above. As to conditions: human protein with threonine inserted after residue 37 and N39D, 100 uM KH2PO4, read-out: pIC50 range for human Nap2b (converted). The class given is cell-based. On the procedure:
as §1, §2, §3, §4, §5

In the next data set the test system is NaPi2b. The data set is described as follows: Competition with phosphate: uptake assay repeated at 2.1 vs 0.1 mM phosphate. The class given is cell-based. As to conditions: potency for inhibition of NaPi2b at 2.1 vs 0.1 mM phosphate. From the text:
In certain preferred embodiments, the phosphate transport inhibitors of the present invention are not competitive inhibitors with respect to phosphate of Na/phosphate co-transport. In certain other preferred embodiments, the phosphate transport inhibitors of the invention are non-competitive inhibitors. Non-competitive inhibitors maintain their degree of inhibition irrespective of the local phosphate concentration. This feature is an important aspect in providing an efficient blockade of intestinal transport in postprandial state, where the local concentration of dietary phosphate can attain concentration as high as 10 mM. It is believed that competitive inhibitors are too sensitive to local phosphate concentration and unable to block phosphate uptake following a high phosphorus meal. Various methods are available for determining whether a phosphate transport inhibitor is non-competitive or competitive. For example, a phosphate uptake assay can be performed and the IC50 values for a compound at different phosphate concentrations can be determined (e.g., “Enzyme kinetics”, I. Segel, 1975, John-Wiley & Sons, p. 123). IC50 values for non-competitive inhibitors will remain the same or similar with respect to the phosphate concentration, whereas IC50 values for competitive inhibitors will increase (i.e. lose potency) as phosphate concentration increases.
To ascertain if an inhibitor was competitive for binding with phosphate, the procedure was repeated, but raising the concentration of the substrate in the assay mixture from 0.1 to 2.1 mM phosphate.

[4] abbreviates: nominal 10 mg/kg (actual 7.6-11 mg/kg).
Where [5] appears, read: nominal 2.5 mg/kg (actual 1.9 mg/kg).

As to `O=C(O)CCOCCOCCOCCNC(=O)c1cccc(C(=O)Nc2ccc(Cl)cc2C(=O)Nc2ccn(-c3cccc(C(F)(F)F)c3)n2)c1` [Example 25, 1-(3-((4-chloro-2-((1-(3-(trifluoromethyl)phenyl)-1H-pyrazol-3-yl)-carbamoyl)phenyl)carbamoyl)phenyl)-1-oxo-5,8,11-trioxa-2-azatetradecan-14-oic acid], the “% remaining, SGF” value in data set [1] (simulated gastric fluid with 3 mg/mL pepsin) is on record as 58%. Moreover, the “% remaining, SIF” value in data set [1] (simulated intestinal fluid with 3 mg/mL pancreatin) is recorded as 95%. For the same molecule, the AUC in data set [2] (setting [4]) was less than 3 ng·h/mL. Also, the “% recovered in feces” value in data set [3] (setting [4]) was found to be 17%.

`CN(CCOCCOCCOCCC(=O)O)Cc1cccc(C(=O)Nc2ccc(N3CCCCC3)cc2C(=O)Nc2ccn(-c3cccc(C(F)(F)F)c3)n2)c1` [Example 17, 2-Methyl-1-(3-((4-(piperidin-1-yl)-2-((1-(3-(trifluoromethyl)phenyl)-1H-pyrazol-3-yl)carbamoyl)phenyl)carbamoyl)phenyl)-5,8,11-trioxa-2-azatetradecan-14-oic acid]: the IC50 at rat NaP2b (SLC34A2) and at human NaP2b (SLC34A2) was 1000 to 7940 nM in each case.

Turning to `O=C(O)c1cccc(SCc2cccc(C(=O)Nc3ccc(N4CCCCC4)cc3C(=O)Nc3ccn(-c4cccc(C(F)(F)F)c4)n3)c2)c1` [Example 18, 3-((3-((4-(Piperidin-1-yl)-2-((1-(3-(trifluoromethyl)phenyl)-1H-pyrazol-3-yl)carbamoyl)phenyl)carbamoyl)benzyl)thio)benzoic acid], the AUC in data set [2] (setting [5]) is 2130 ng·h/mL; in data set [2] (setting [4]), 6050 ng·h/mL. The Cmax in data set [2] (setting [5]) amounted to 678 ng/mL; in data set [2] (setting [4]) it was 1820 ng/mL. In addition, the “Competitive with respect to Pi?” value in the data set with NaPi2b is “No”. Also, the “% recovered in feces” value in data set [3] (dosed at 1.9 mg/kg) was found to be 12%; in data set [3] (setting [4]), 60%. In addition, on rat NaP2b (SLC34A2), the IC50 is 1000 to 7940 nM.

On to `CN(CCN1CCOCC1)C(=O)c1cccc(C(=O)Nc2ccc(N3CCCCC3)cc2C(=O)Nc2nc(-c3cccc(C(F)(F)F)c3)n[nH]2)c1` [Example 1, N1-Methyl-N1-(2-morpholinoethyl)-N3-(4-(piperidin-1-yl)-2-((3-(3-(trifluoromethyl)phenyl)-1H-1,2,4-triazol-5-yl)carbamoyl)phenyl)isophthalamide], for which the IC50 on rat NaP2b (SLC34A2) and at human NaP2b (SLC34A2) was less than 1000 nM each time.

For `O=C(O)P(=O)(O)O` [PFA, reference compound], the “Competitive with respect to Pi?” value in the data set with NaPi2b was “Yes”. The “pIC50 range for rat Nap2b” value on rat NaP2b (SLC34A2) is 2-3.

In the case of `O=C(O)Cc1cccc(SCc2cccc(C(=O)Nc3ccc(N4CCCCC4)cc3C(=O)Nc3ccn(-c4cccc(C(F)(F)F)c4)n3)c2)c1` [Example 23, 2-(3-((3-((4-(Piperidin-1-yl)-2-((1-(3-(trifluoromethyl)phenyl)-1H-pyrazol-3-yl)carbamoyl)phenyl)carbamoyl)benzyl)thio)phenyl)acetic acid], the IC50 at rat NaP2b (SLC34A2) and on human NaP2b (SLC34A2) was less than 1000 nM each time.
